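These data come from cells grown in 96-well plates and exposed to compound for 48 hours at five concentrations. TGI denotes the concentration required for complete inhibition of growth.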
What was measured:
Assay in all cases: inhibition of tumour cell growth, NCI panel, 48 h
OVCAR-8 ovarian = test system: OVCAR-8 ovarian
TK-10 renal = test system: TK-10 renal
A498 renal = test system: A498 renal
HOP-62 NSCLC = test system: HOP-62 NSCLC
HOP-92 NSCLC = test system: HOP-92 NSCLC
HCT-116 colon = test system: HCT-116 colon
KM12 colon = test system: KM12 colon
HT29 colon = test system: HT29 colon
OVCAR-4 ovarian = test system: OVCAR-4 ovarian
MOLT-4 leukemia = test system: MOLT-4 leukemia
A549 NSCLC = test system: A549 NSCLC
HS 578T breast = test system: HS 578T breast
NCI-H460 lung = test system: NCI-H460 lung
MCF7 breast = test system: MCF7 breast
CCRF-CEM leukemia = test system: CCRF-CEM leukemia
UO-31 renal = test system: UO-31 renal
HCT-15 colon = test system: HCT-15 colon
CAKI-1 renal = test system: CAKI-1 renal
SN12C renal = test system: SN12C renal
SK-OV-3 ovarian = test system: SK-OV-3 ovarian
BT-549 breast = test system: BT-549 breast
786-0 renal = test system: 786-0 renal
PC-3 prostate = test system: PC-3 prostate
MDA-N = test system: MDA-N
SK-MEL-5 melanoma = test system: SK-MEL-5 melanoma
SF-539 CNS = test system: SF-539 CNS
DU-145 prostate = test system: DU-145 prostate
U251 CNS = test system: U251 CNS
ACHN renal = test system: ACHN renal
SW-620 colon = test system: SW-620 colon
COLO 205 colon = test system: COLO 205 colon
SNB-75 CNS = test system: SNB-75 CNS
UACC-257 melanoma = test system: UACC-257 melanoma
SF-268 CNS = test system: SF-268 CNS
MDA-MB-435 = test system: MDA-MB-435
LOX IMVI melanoma = test system: LOX IMVI melanoma
SF-295 CNS = test system: SF-295 CNS
NCI-H226 lung = test system: NCI-H226 lung
M14 melanoma = test system: M14 melanoma
T-47D breast = test system: T-47D breast
HL-60(TB) leukemia = test system: HL-60(TB) leukemia
OVCAR-5 ovarian = test system: OVCAR-5 ovarian
UACC-62 melanoma = test system: UACC-62 melanoma
EKVX NSCLC = test system: EKVX NSCLC
OVCAR-3 ovarian = test system: OVCAR-3 ovarian
MDA-MB-231 breast = test system: MDA-MB-231 breast
SK-MEL-2 melanoma = test system: SK-MEL-2 melanoma
SNB-19 CNS = test system: SNB-19 CNS
NCI-H522 lung = test system: NCI-H522 lung
SK-MEL-28 melanoma = test system: SK-MEL-28 melanoma
NCI/ADR-RES ovarian = test system: NCI/ADR-RES ovarian
NCI-H23 lung = test system: NCI-H23 lung
RXF 393 renal = test system: RXF 393 renal
IGROV1 ovarian = test system: IGROV1 ovarian
RPMI-8226 leukemia = test system: RPMI-8226 leukemia
MALME-3M melanoma = test system: MALME-3M melanoma

CCCCCCCCCCCC(=O)OCC(O)CO (stereo not drawn)
TGI (OVCAR-8 ovarian): > 100 µM
TGI (TK-10 renal): > 100 µM
TGI (A498 renal): > 100 µM
TGI (HOP-62 NSCLC): > 100 µM
TGI (HOP-92 NSCLC): > 100 µM
TGI (HCT-116 colon): > 100 µM
TGI (KM12 colon): 75.6 µM
TGI (HT29 colon): > 100 µM
TGI (OVCAR-4 ovarian): > 100 µM
TGI (MOLT-4 leukemia): > 100 µM
TGI (A549 NSCLC): > 100 µM
TGI (HS 578T breast): > 100 µM
TGI (NCI-H460 lung): > 100 µM
TGI (MCF7 breast): > 100 µM
TGI (CCRF-CEM leukemia): > 100 µM
TGI (UO-31 renal): > 100 µM
TGI (HCT-15 colon): > 100 µM
TGI (CAKI-1 renal): > 100 µM
TGI (SN12C renal): > 100 µM
TGI (SK-OV-3 ovarian): > 100 µM
TGI (BT-549 breast): > 100 µM
TGI (786-0 renal): > 100 µM
TGI (PC-3 prostate): > 100 µM
TGI (MDA-N): > 100 µM
TGI (SK-MEL-5 melanoma): > 100 µM
TGI (SF-539 CNS): > 100 µM
TGI (DU-145 prostate): > 100 µM
TGI (U251 CNS): > 100 µM
TGI (ACHN renal): > 100 µM
TGI (SW-620 colon): > 100 µM
TGI (COLO 205 colon): > 100 µM
TGI (SNB-75 CNS): > 100 µM
TGI (UACC-257 melanoma): > 100 µM
TGI (SF-268 CNS): > 100 µM
TGI (MDA-MB-435): > 100 µM
TGI (LOX IMVI melanoma): > 100 µM
TGI (SF-295 CNS): > 100 µM
TGI (NCI-H226 lung): > 100 µM
TGI (M14 melanoma): > 100 µM
TGI (T-47D breast): > 100 µM
TGI (HL-60(TB) leukemia): 42.3 µM
TGI (OVCAR-5 ovarian): > 100 µM
TGI (UACC-62 melanoma): > 100 µM
TGI (EKVX NSCLC): > 100 µM
TGI (OVCAR-3 ovarian): > 100 µM
TGI (MDA-MB-231 breast): > 100 µM
TGI (SK-MEL-2 melanoma): > 100 µM
TGI (SNB-19 CNS): > 100 µM
TGI (NCI-H522 lung): > 100 µM
TGI (SK-MEL-28 melanoma): > 100 µM
TGI (NCI/ADR-RES ovarian): > 100 µM
TGI (NCI-H23 lung): > 100 µM

O=C(c1ccsc1)c1nccc2c1cnc1ccccc12
TGI (OVCAR-8 ovarian): > 100 µM
TGI (RXF 393 renal): > 100 µM
TGI (TK-10 renal): > 100 µM
TGI (A498 renal): > 100 µM
TGI (HOP-62 NSCLC): > 100 µM
TGI (HOP-92 NSCLC): > 100 µM
TGI (HCT-116 colon): > 100 µM
TGI (KM12 colon): > 100 µM
TGI (HT29 colon): > 100 µM
TGI (OVCAR-4 ovarian): > 100 µM
TGI (MOLT-4 leukemia): 24.3 µM
TGI (A549 NSCLC): > 100 µM
TGI (HS 578T breast): 70.6 µM
TGI (NCI-H460 lung): > 100 µM
TGI (MCF7 breast): > 100 µM
TGI (CCRF-CEM leukemia): > 100 µM
TGI (UO-31 renal): > 100 µM
TGI (HCT-15 colon): > 100 µM
TGI (CAKI-1 renal): > 100 µM
TGI (SN12C renal): > 100 µM
TGI (SK-OV-3 ovarian): > 100 µM
TGI (BT-549 breast): > 100 µM
TGI (786-0 renal): > 100 µM
TGI (IGROV1 ovarian): 17.1 µM
TGI (RPMI-8226 leukemia): > 100 µM
TGI (PC-3 prostate): > 100 µM
TGI (MDA-N): > 100 µM
TGI (SK-MEL-5 melanoma): > 100 µM
TGI (SF-539 CNS): > 100 µM
TGI (DU-145 prostate): > 100 µM
TGI (U251 CNS): > 100 µM
TGI (ACHN renal): > 100 µM
TGI (SW-620 colon): > 100 µM
TGI (COLO 205 colon): > 100 µM
TGI (SNB-75 CNS): 88.2 µM
TGI (UACC-257 melanoma): > 100 µM
TGI (SF-268 CNS): > 100 µM
TGI (MDA-MB-435): > 100 µM
TGI (LOX IMVI melanoma): > 100 µM
TGI (SF-295 CNS): > 100 µM
TGI (NCI-H226 lung): > 100 µM
TGI (MALME-3M melanoma): > 100 µM
TGI (M14 melanoma): > 100 µM
TGI (T-47D breast): > 100 µM
TGI (HL-60(TB) leukemia): 6.65 µM
TGI (OVCAR-5 ovarian): > 100 µM
TGI (UACC-62 melanoma): > 100 µM
TGI (EKVX NSCLC): 88.4 µM
TGI (OVCAR-3 ovarian): > 100 µM
TGI (MDA-MB-231 breast): > 100 µM
TGI (SK-MEL-2 melanoma): > 100 µM
TGI (SNB-19 CNS): > 100 µM
TGI (NCI-H522 lung): 62 µM
TGI (SK-MEL-28 melanoma): > 100 µM
TGI (NCI/ADR-RES ovarian): > 100 µM
TGI (NCI-H23 lung): > 100 µM

— PubChem BioAssay (NCI)
